The test system of data set [1] is S. aureus ATCC 6538. Nature of the data set: MIC determination, reference strain (microdilution). Type of data set: cell-based. Conditions: Staphylococcus aureus, ATCC6538; S. aureus ATCC 6538; ± SD; Co-trimoxazole as sulfamethoxazole/trimethoprim; read-out: MIC. In general terms: Dilution methods test growth across graded concentrations, often in twofold steps.
Data set [2] relates to S. epidermidis ATCC 14990. The data set is described as above. Conditions: Staphylococcus epidermidis, ATCC14990; S. epidermidis ATCC 14990; Co-trimoxazole as sulfamethoxazole/trimethoprim; read-out: MIC. Type of data set: cell-based.
In data set [3] the test system is E. hirae ATCC 10541. The description is as above. Conditions: Enterococcus hirae, ATCC10541; E. hirae ATCC 10541; Co-trimoxazole as sulfamethoxazole/trimethoprim; read-out: MIC. Type of data set: cell-based.
Data set [4] relates to E. faecalis ATCC 51299. Described as above. Type of data set: cell-based. Conditions: Enterococcus faecalis, ATCC51299; E. faecalis ATCC 51299; Co-trimoxazole as sulfamethoxazole/trimethoprim; read-out: MIC.
Data set [5] concerns B. subtilis ATCC 6633. The data set is described as above. Type of data set: cell-based. To be noted: Bacillus subtilis, ATCC6633; B. subtilis ATCC 6633; Co-trimoxazole as sulfamethoxazole/trimethoprim; read-out: MIC.
Data set [6] concerns C. diphtheriae. Described as above. Type of data set: cell-based. To be noted: Corynebacterium diphtheriae; C. diphtheriae; Co-trimoxazole as sulfamethoxazole/trimethoprim; read-out: MIC.
Data set [7] concerns C. albicans ATCC 10231. The experiment in a line: MIC determination, reference fungal strain (microdilution). Type of data set: cell-based. To be noted: Candida albicans, ATCC10231; C. albicans ATCC 10231; read-out: MIC.
Data set [8] concerns E. coli ATCC 8739. Nature of the data set: MIC determination, reference strain (microdilution). Type of data set: cell-based. Conditions: Escherichia coli, ATCC8739; E. coli ATCC 8739; Co-trimoxazole as sulfamethoxazole/trimethoprim; read-out: MIC.
In data set [9] the test system is Staphylococcus sp. and Enterococcus sp. The experiment in a line: MIC, summary statements on reference Gram-positive cocci. Type of data set: cell-based. To be noted: Staphylococcus and Enterococcus species, reference Gram-positive cocci (range over strains). On the procedure:
Sterile sheep blood defibrinated (GrasoBiotech). Co-trimoxazole (composition sulfamethoxazole 400 mg/trimethoprim 80 mg; WZF Polfa Poland). Ketoconazole (WZF Polfa Poland). Bacteria: Enterococcus hirae ATCC 10541 and Enterococcus faecalis ATCC 51299, Staphylococcus epidermidis ATCC 14990, Staphylococcus aureus ATCC 6538, clinical strains Staphylococcus aureus MRSA, clinical strains Staphylococcus sp. (MRCNS), clinical strain Staphylococcus epidermidis MRSE, clinical strain Enterococcus sp., Corynebacterium diphtheriae ZMF, Bacillus subtilis ATCC 6633, Escherichia coli ATCC 8739, Candida albicans ATCC 10231. Brain-heart infusion broth (BHI, Becton Dickinson) for Enterococcus hirae ATCC 10541 and Enterococcus faecalis ATCC 51299, BHI supplement with 10% bovine serum for Bacillus subtilis, Corynebacterium diphtheriae ZMF, Staphylococcus epidermidis ATCC 14990, Staphylococcus aureus ATCC 6538, clinical strains Staphylococcus aureus MRSA, clinical strains Staphylococcus sp. (CNS), clinical strain Staphylococcus epidermidis MRSE grew in Mueller-Hinton broth (MH cation-adjusted, Becton Dickinson) in an aerobic atmosphere at 37 °C for 48 h, in an aerobic atmosphere at 37 °C for 72 h. Candida albicans grew in Sabourauda broth (Sb, Becton Dickinson), in an aerobic atmosphere at 37 °C for 72 h. After determination of the bacterial viability, BHI blood agar plates, MH agar plates, and Sb agar plates were used.
The MIC determination for the reference and clinical strains was performed based on the methodology described by Kula et al.. The dry test samples were dissolved in dimethyl sulfoxide (DMSO) and diluted in water, resulting in a finale concentration of about 500 µg/mL. These solutions were diluted and added to the first well of each microtiter line. Dilution in geometric progression was done by transferring the mixture/dilution (100 μL) from the first to the twelfth well. An aliquot (100 μL) was discarded from the twelfth well. The final concentration of the samples used in the antimicrobial activity assay ranged from 125 to 0.006 µg/mL. Co-trimoxazole (for bacteria), with the composition sulfamethoxazole 400 mg/trimethoprim 80 mg was used as a reference compound in the concentration range of 20 000/4000 to 1/0.2 µg/mL. Ketoconazole (for fungi) was used as a reference compound in the concentration range of 125 to 0.006 µg/mL. Tests were incubated in adequate conditions described by Kula et al.. Diluent concentration had no effect on the activity of the tested compounds. All experiments were carried out three times.

Data set [10] has as its system HeLa cells. The experiment in a line: MTT assay. Conditions: for IC50: Homo sapiens, HeLa, 24 h, MTT, 24 h treatment, read-out: IC50; for Selectivity index (SI): IC50 HEK-293 / IC50 HeLa. Type of data set: cell-based, human.
Data set [11] deals with SKOV-3 cells. The experiment in a line: MTT assay. Type of data set: cell-based, human. To be noted: for IC50: Homo sapiens, SK-OV-3, SKOV-3, MTT, 24 h treatment, read-out: IC50; for Selectivity index (SI): IC50 HEK-293 / IC50 SKOV-3.
In data set [12] the test system is MCF-7 cells. Nature of the data set: MTT assay. Type of data set: cell-based, human. Conditions: for IC50: Homo sapiens, MCF7, MCF-7, MTT, 24 h treatment, read-out: IC50; for Selectivity index (SI): IC50 HEK-293 / IC50 MCF-7. A general note: Tetrazolium dyes change colour on reduction, which living cells bring about.
Data set [13] has as its system HEK-293 cells. The experiment in a line: MTT assay, noncancerous cells. Type of data set: cell-based. Conditions: Homo sapiens, HEK293; HEK-293; MTT, 24 h treatment; read-out: IC50.
A short description of data set [14]: DPPH assay. To be noted: DPPH radical scavenging; 40 min, room temperature. The procedure: The DPPH assay was performed spectrophotometrically. The amount of 30 µL of different concentrations of samples, dissolved in methanol/DMSO (9/1 v/v), was mixed with 170 µL of 0.06 mM DPPH methanolic solution and completed with methanol to a final volume of 300 µL. DPPH methanolic solution with methanol/DMSO (9/1 v/v) was used as a control. After 40 min of incubation at room temperature in the dark, the absorbance was analyzed at λ = 510 nm by a 96-well microplate reader (Epoch, BioTek System, Santa Clara, CA, USA). Ascorbic acid was used as a standard.
DPPH inhibition was calculated by the following equation:DPPH Inhibition (%) = [Acontrol − Asample)/Acontrol] × 100%
(§1) IC50 values of the samples were calculated using program GraFit v. 7.0 (Erithacus Software). The analysis was performed three times, with tree replications in each (n = 9). Statistical analysis was performed with one-way ANOVA with Tuckey’s post-hoc test.

Data set [15] is described as follows: ABTS assay. Conditions: ABTS radical scavenging; 10 min, 30 °C. The procedure:
The ABTS assay was performed spectrophotometrically. […] ABTS solution with methanol/DMSO (9/1 v/v) was used as a control. After 10 min of incubation at 30 °C in the dark, the absorbance was analyzed at λ = 750 nm by a 96-well microplate reader (Epoch, BioTek System, Santa Clara, CA, USA). Ascorbic acid was used as a standard.
ABTS inhibition was calculated by the following equation:ABTS Inhibition (%) = [Acontrol − Asample)/Acontrol] × 100%
as §1

A short description of data set [16]: in vitro. Conditions: sheep, defibrinated sheep blood diluted 1:9 v/v with PBS, pH 7.
Data set [17] deals with cancer cells (HeLa, SKOV-3, MCF-7). Nature of the data set: MTT assay, summary statements on the cancer cells. Type of data set: cell-based. To be noted: Homo sapiens, cell line not specified.

Usually MIC stands for the least concentration at which growth counts as inhibited. By IC50 is commonly meant the concentration that gives 50% inhibition.

Molecules are shown by their SMILES. Converted amounts (≈) assume the structure as drawn.

Regarding `Cc1cc(S(=O)(=O)NC(=O)/C=C/c2ccc(Br)cc2)c(SCc2cccc3ccccc23)cc1Cl` [Compound 16b, (E)–3–(4–Bromophenyl)–N–{[4–chloro–5–methyl–2–(naphthalen–1–yl)methylthio]phenylsulfonyl}acrylamide], the MIC in data set [1] amounted to 1 ± 0.29 µg/mL (≈ 1.7 µM); in data set [2], 1 ± 0.29 µg/mL (≈ 1.7 µM); in data set [3] it was 2 ± 0.58 µg/mL (≈ 3.41 µM); in data set [4] it was 2 ± 0.58 µg/mL (≈ 3.41 µM); in data set [5], 62.5 ± 0.29 µg/mL (≈ 106 µM); in [6] it was 62.5 ± 0.29 µg/mL (≈ 106 µM). In addition, the figures for the MIC in [7], in data set [8] and in data set [9] were above 125 µg/mL, above 125 µg/mL and 1 to 2 µg/mL (≈ 1.7 to 3.41 µM), respectively. In addition, the IC50 worked out at 13.47 ± 0.13 µg/mL (≈ 22.9 µM) in data set [10], 16.6 ± 0.69 µg/mL (≈ 28.3 µM) in data set [11], 30.7 ± 2.49 µg/mL (≈ 52.3 µM) in data set [12] and 15.7 ± 1.62 µg/mL (≈ 26.7 µM) in [13]. The “Selectivity index (SI)” value in [10] amounted to 1.2; in data set [11], 0.9; in [12], 0.5. For the same compound, in [14], the “IC50 DPPH” value was determined as 945.37 ± 0.14 µg/mL (≈ 1610 µM). In addition, the “IC50 ABTS” value in data set [15] came out at 697.68 ± 1.26 µg/mL (≈ 1190 µM). Moreover, in data set [16], the hemolysis at 24 h, 31.25 µg/mL is 12 to 20%.

For the compound `Cc1cc(S(=O)(=O)NC(=O)/C=C/c2ccc(F)cc2)c(SCc2cccc3ccccc23)cc1Cl` [Compound 16c, (E)–N–{4–Chloro–5–methyl–2–[(naphthalen–1–yl)methylthio]phenylsulfonyl}–3–(4–fluorophenyl)acrylamide], the MIC in data set [1] is 1 ± 0.29 µg/mL (≈ 1.9 µM); in data set [2], 2 ± 0.58 µg/mL (≈ 3.8 µM); in data set [3], 2 ± 0.58 µg/mL (≈ 3.8 µM); in data set [4], 2 ± 0.58 µg/mL (≈ 3.8 µM); in data set [5], 62.5 ± 0.29 µg/mL (≈ 119 µM); in data set [6], above 125 µg/mL. The MIC in data set [7] is above 125 µg/mL; in [8], above 125 µg/mL; in [9], 1 to 2 µg/mL (≈ 1.9 to 3.8 µM). In addition, the IC50 was 11.2 ± 0.2 µg/mL (≈ 21.3 µM) in data set [10]; 9.28 ± 1.02 µg/mL (≈ 17.6 µM) in [11]; 11.2 ± 0.08 µg/mL (≈ 21.3 µM) in data set [12]; 7.67 ± 0.21 µg/mL (≈ 14.6 µM) in data set [13]; below 10 µg/mL in [17] (MTT); at most 20 µM in data set [17] (µg/mL bound converted). Further, the “Selectivity index (SI)” value in data set [10] was found to be 0.7; in data set [11] it was 0.8; in data set [12], 0.7. The “IC50 DPPH” value in data set [14] is 620.47 ± 0.67 µg/mL (≈ 1180 µM). Further, in data set [15], the “IC50 ABTS” value is given as 622.23 ± 2.25 µg/mL (≈ 1180 µM).

For `Cc1cc(S(=O)(=O)NC(=O)/C=C/c2ccc([N+](=O)[O-])cc2)c(SCc2cccc3ccccc23)cc1Cl` [Compound 16f, (E)–N–{4–Chloro–5–methyl–2–[(naphthalen–1–yl)methylthio]phenylsulfonyl}–3–(4–nitrophenyl)acrylamide], the minimal inhibitory concentration (MIC) in [1] worked out at 1 ± 0.29 µg/mL (≈ 1.81 µM); in data set [2] it was 2 ± 0.58 µg/mL (≈ 3.62 µM); in [3], 4 ± 0.15 µg/mL (≈ 7.23 µM); in data set [4], 4 ± 0.15 µg/mL (≈ 7.23 µM); in data set [5], 62.5 ± 0.29 µg/mL (≈ 113 µM); in data set [6] it was 62.5 ± 0.29 µg/mL (≈ 113 µM). Moreover, the MIC in [7] and in [8] was above 125 µg/mL each time. The IC50 in data set [10] was 62.8 ± 3.75 µg/mL (≈ 114 µM); in data set [11], 70.53 ± 0.21 µg/mL (≈ 128 µM); in [12], 93.5 ± 4.71 µg/mL (≈ 169 µM); in data set [13], 94.5 ± 4.7 µg/mL (≈ 171 µM); in [17] (MTT), above 60 µg/mL. The “Selectivity index (SI)” value was found to be 1.5 in data set [10], 1.3 in data set [11] and 1.0 in data set [12]. In addition, the “IC50 DPPH” value in data set [14] is 310.50 ± 0.73 µg/mL (≈ 561 µM). Besides, the “IC50 ABTS” value in data set [15] was determined as 597.53 ± 1.3 µg/mL (≈ 1080 µM). The hemolysis at 24 h, 31.25 µg/mL in [16] fell in the range of 12 to 20%.

The values above are taken from article PMC10096175, “An In Vitro Antimicrobial, Anticancer and Antioxidant Activity of N–[(2–Arylmethylthio)phenylsulfonyl]cinnamamide Derivatives” (Molecules, 2023).
